Data taken from the supplement of paper PMC10307832.

Key:
Experiment in all cases: relative viability (nuclei count vs DMSO), 5 days (fraction); higher = more cells survive
Serdemetan + Olaparib = compound: c1ccc2c(CCNc3ccc(Nc4ccncc4)cc3)c[nH]c2c1 [Serdemetan] + O=C(c1cc(Cc2n[nH]c(=O)c3ccccc23)ccc1F)N1CCN(C(=O)C2CC2)CC1 [Olaparib] (partner 8 µM)
Outline: (§1)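 Cells from lung cancer lines were seeded into 1536-well plates and, one day later, dosed by pin tool. Treatments were either a single drug or a fixed dose of an anchor drug with five library-drug doses (not always all listed) in √10 steps. After 5 days, nuclei were stained in a one-step fixation (final 0.05% Triton X-100, 1% formaldehyde, 1 ug/ml Hoechst) and counted on 4× images, and relative viability is the treated-to-vehicle nuclei ratio, as the median of duplicate plates.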

Serdemetan + Palbociclib = compound: c1ccc2c(CCNc3ccc(Nc4ccncc4)cc3)c[nH]c2c1 [Serdemetan] + CC(=O)c1c(C)c2cnc(Nc3ccc(N4CCNCC4)cn3)nc2n(C2CCCC2)c1=O [Palbociclib] (partner 0.5 µM)
Outline: as §1

Selisistat + Palbociclib = compound: C1CC(C2=C(C1)C3=C(N2)C=CC(=C3)Cl)C(=O)N [Selisistat] + CC(=O)c1c(C)c2cnc(Nc3ccc(N4CCNCC4)cn3)nc2n(C2CCCC2)c1=O [Palbociclib] (partner 0.5 µM)
Outline: as §1

Serdemetan + Pictilisib = compound: c1ccc2c(CCNc3ccc(Nc4ccncc4)cc3)c[nH]c2c1 [Serdemetan] + CS(=O)(=O)N1CCN(Cc2cc3nc(-c4cccc5[nH]ncc45)nc(N4CCOCC4)c3s2)CC1 [Pictilisib] (partner 1 µM)
Outline: as §1

Cell Line	relative viability (Serdemetan + Olaparib; first compound 0.04 µM)	relative viability (Serdemetan + Olaparib; first compound 0.1265 µM)	relative viability (Serdemetan + Olaparib; first compound 4 µM)	relative viability (Serdemetan + Palbociclib; first compound 0.04 µM)	relative viability (Serdemetan + Palbociclib; first compound 0.1265 µM)	relative viability (Serdemetan + Palbociclib; first compound 4 µM)	relative viability (Selisistat + Palbociclib; first compound 0.4 µM)	relative viability (Selisistat + Palbociclib; first compound 1.265 µM)	relative viability (Selisistat + Palbociclib; first compound 4 µM)	relative viability (Selisistat + Palbociclib; first compound 12.65 µM)	relative viability (Selisistat + Palbociclib; first compound 40 µM)	relative viability (Serdemetan + Pictilisib; first compound 0.04 µM)	relative viability (Serdemetan + Pictilisib; first compound 0.1265 µM)	relative viability (Serdemetan + Pictilisib; first compound 0.4 µM)	relative viability (Serdemetan + Pictilisib; first compound 1.265 µM)	relative viability (Serdemetan + Pictilisib; first compound 4 µM)	relative viability (Serdemetan + Olaparib; first compound 0.4 µM)	relative viability (Serdemetan + Olaparib; first compound 1.265 µM)	relative viability (Serdemetan + Palbociclib; first compound 0.4 µM)	relative viability (Serdemetan + Palbociclib; first compound 1.265 µM)
EKVX	0.852	0.851	0.66	0.456	0.374	0.282	0.364	0.351	0.329	0.376	0.353	0.532	0.414	0.352	0.441	0.425				
EMC-BAC-2	0.447	0.446	0.403	0.508	0.523	0.463	0.523	0.525	0.586	0.282	0.319	0.564	0.556	0.507	0.508	0.502	0.473	0.338	0.493	0.479
EPLC-272H	0.837	0.883	0.641	0.337	0.329	0.3	0.343	0.323		0.334	0.368	0.365	0.348	0.293	0.27	0.33	0.714	0.676	0.33	0.256
H3255	0.559	0.529	0.566	0.327	0.333	0.342	0.348	0.295	0.33	0.303	0.32	0.5	0.403	0.423	0.497	0.435	0.527	0.508	0.346	0.286
HARA	0.875	0.892	0.362	0.269	0.264	0.223	0.295	0.242	0.241	0.275	0.251	0.385	0.411	0.408		0.347	0.674	0.476	0.228	0.236
HCC-15	0.673	0.667	0.386	0.697	0.757	0.556	0.755	0.854	0.586	0.748	0.885	0.753	0.821	0.708	0.567	0.638	0.57	0.38	0.668	0.56
HCC-44	0.94	0.943	0.815	0.927	0.93	0.922	1.05	0.975	1.07	0.994	1.06	0.513	0.668	0.501	0.481	0.689	0.979	0.851	0.953	0.92
HCC-78	0.847	0.731	0.592	0.449	0.391	0.47	0.488	0.461	0.435	0.476	0.473	0.207	0.201	0.155	0.192	0.245	0.749	0.79	0.494	0.437
HCC-366	0.22	0.0954	0.0631	0.351	0.281	0.0782	0.414	0.447	0.37	0.355	0.377	0.204	0.151	0.0985	0.141	0.168	0.0557	0.0411	0.0795	0.0413
HCC-827	0.631	0.594	0.306	0.454	0.448	0.303	0.483	0.475	0.534	0.439	0.527	0.921	0.712		0.575	0.824		0.509		0.412
HOP-62	0.482	0.394	0.263	0.466	0.469	0.209	0.43	0.43	0.508	0.424	0.619	0.821	0.798	0.782	0.604	0.657	0.489		0.545	0.3
LC-2-ad	0.703	0.629	0.511	0.438	0.449	0.44	0.508	0.49	0.498	0.502	0.555	0.42	0.445	0.431		0.417	0.63	0.536	0.507	0.471
LCLC-97TM1	0.349	0.358	0.237	0.228	0.224	0.16	0.234	0.256		0.214	0.249	0.214	0.22	0.183	0.143	0.124	0.403	0.174	0.22	0.134
LCLC-103H	0.742	0.727	0.728	0.479	0.474	0.419	0.3	0.509	0.452	0.435	0.558	0.629	0.665	0.619	0.594	0.611	0.661	0.593	0.453	0.389
LK-2	0.715	0.645	0.57	0.69	0.704	0.496	0.797	0.686	0.766	0.694	0.566	0.479	0.578	0.687	0.362	0.301	0.782	0.444	0.778	0.517
LOU-NH91	0.897	0.889	0.877	0.518	0.515	0.563	0.594	0.526	0.585	0.519	0.552	0.519	0.484		0.433	0.496				
LU99A	0.245	0.185	0.136	0.431	0.371	0.22	0.459	0.367	0.44	0.445	0.399	0.336	0.33	0.338	0.2	0.218	0.17	0.124	0.308	0.203
LXF-289	1.1	1.11	0.388	0.544	0.542	0.381	0.628	0.639	0.55	0.557	0.619	0.792	0.783	0.662	0.701	0.707	0.939	0.794	0.527	0.524
NCI-H23	0.314	0.364	0.231	0.474	0.472	0.437	0.57	0.51		0.538	0.441	0.536	0.571	0.459	0.439	0.543	0.298		0.461	
NCI-H322M	0.667	0.757	0.655	0.491	0.488	0.463	0.488	0.467		0.478	0.5	0.519	0.505	0.468	0.552	0.516	0.729	0.469	0.474	0.327
NCI-H358	0.582	0.507	0.464	0.134	0.135	0.117	0.137	0.128	0.128	0.192	0.149	0.364	0.368	0.332	0.281	0.317	0.626	0.595	0.132	0.122
NCI-H441	0.513	0.422	0.281	0.206	0.212	0.225	0.24	0.186	0.136	0.217	0.239	0.486	0.481	0.418	0.277	0.384	0.5	0.3	0.18	0.147
NCI-H460	0.342	0.344	0.148	0.166	0.175	0.0544	0.163	0.149	0.137	0.15	0.113	0.339	0.366	0.27	0.287	0.253	0.349	0.182	0.0992	0.0798
NCI-H520	0.335	0.347	0.26	0.261	0.215	0.193	0.224	0.208	0.198	0.274	0.236	0.283	0.327	0.321	0.269	0.272	0.27	0.199	0.252	0.179
NCI-H647	0.51	0.495	0.165	0.374	0.332	0.243	0.415	0.331	0.398	0.433	0.396	0.359	0.313	0.499	0.392	0.445	0.534	0.27	0.528	0.322
NCI-H650	0.379	0.362	0.285	0.332	0.365	0.287	0.379	0.319	0.443	0.387	0.339	0.743	0.778	0.977	0.793	0.746	0.365	0.271	0.344	0.282
NCI-H661	0.711	0.648	0.558	0.387	0.416	0.393	0.421	0.392	0.374	0.414	0.374	0.589	0.356	0.383	0.342	0.361	0.634	0.549	0.411	0.382
NCI-H727	0.598	0.725	0.726	0.351	0.638	0.644	0.738	0.613	0.442	0.601	0.637	0.327	0.421	0.412	0.346	0.299	0.679	0.484	0.604	0.722
